Assay results: publication PMC9143817 (Molecules, 2022)
Read-outs that look alike come from different tables or passages of the source.

Key:
[1] = ABTS^•+-scavenging activity
Excerpt: A ABTS^•+-scavenging assay measured the ability of pure compounds to decrease the color, reacting directly with the ABTS radical.

[2] = DPPH^•-scavenging activity (Blois method)
Excerpt: Radical-scavenging assays are often used for screening the antioxidant properties of pure or novel synthesized compounds. For this purpose, the most commonly and widely used radical scavenging method is the DPPH radical-scavenging assay.

[3] = DMPD^•+-scavenging activity
Excerpt: In this study, DMPD radicals were generated in situ by oxidation with ferric chloride. […] (as a biologically active and bright yellow chemical produced by Curcuma longa species).

[4] = design: method as in ref 3 (usnic acid), 46 (caffeic acid), 47 (uric acid), 48 (tannic acid), 49 (caffeic acid phenethyl ester); concentration or dose not given beside the values; conditions: at similar concentrations; ref 3 (usnic acid), 46 (caffeic acid), 47 (uric acid), 48 (tannic acid), 49 (caffeic acid phenethyl ester); cited from earlier work
[5] = target: T1, carbonic anhydrase II isoenzyme (hCA II) (Homo sapiens, UniProt P00918); assay: CA II inhibition (esterase activity); format: biochemical
T1 construct: Human erythrocytes were used as the CA II isoenzyme source; from tissue; host or cells: human erythrocytes
Method: Human erythrocytes were used as the CA II isoenzyme source. Fresh human erythrocytes were centrifuged at 10,000× g for 30 min. Then, they were precipitated and the serum was separated and adjusted with solid Tris to pH 8.7 [99]. The CA II isoenzyme was purified using Sepharose-4B-L-Tirozyne-sulfanylamide affinity column chromatography [100]. […] During the purification and inhibition process of hCA II, esterase activity was examined.

α-glycosidase = assay: α-Glycosidase inhibition (p-NPG substrate); format: biochemical; conditions: read-out: IC50 (nM) α-Gly
Method: The absorbances of samples were measured at 405 nm. One α-glycosidase unit was the enzyme quantity, which catalyzes […] of substrate per minute (pH 7.4).
Lineweaver–Burk graphs were used for the determination of Ki values and other inhibition parameters.

[6] = target: butyrylcholinesterase (BChE) (Equus caballus, UniProt P81908); assay: biochemical
[7] = target: T2, acetylcholinesterase (AChE) (Electrophorus electricus, UniProt O42275); assay: biochemical
[8] = design: concentration or dose not given beside the values; conditions: at similar concentrations; ref 3 (usnic acid), 50 (eugenol), 51 (resveratrol), 52 (taxifolin), 53 (olivetol); cited from earlier work
[9] = target: T2, acetylcholinesterase (AChE); conditions: literature values, cited from earlier work
[10] = ref 53 (olivetol), 59 (taxifolin)

T2 sequence (O42275 24-633): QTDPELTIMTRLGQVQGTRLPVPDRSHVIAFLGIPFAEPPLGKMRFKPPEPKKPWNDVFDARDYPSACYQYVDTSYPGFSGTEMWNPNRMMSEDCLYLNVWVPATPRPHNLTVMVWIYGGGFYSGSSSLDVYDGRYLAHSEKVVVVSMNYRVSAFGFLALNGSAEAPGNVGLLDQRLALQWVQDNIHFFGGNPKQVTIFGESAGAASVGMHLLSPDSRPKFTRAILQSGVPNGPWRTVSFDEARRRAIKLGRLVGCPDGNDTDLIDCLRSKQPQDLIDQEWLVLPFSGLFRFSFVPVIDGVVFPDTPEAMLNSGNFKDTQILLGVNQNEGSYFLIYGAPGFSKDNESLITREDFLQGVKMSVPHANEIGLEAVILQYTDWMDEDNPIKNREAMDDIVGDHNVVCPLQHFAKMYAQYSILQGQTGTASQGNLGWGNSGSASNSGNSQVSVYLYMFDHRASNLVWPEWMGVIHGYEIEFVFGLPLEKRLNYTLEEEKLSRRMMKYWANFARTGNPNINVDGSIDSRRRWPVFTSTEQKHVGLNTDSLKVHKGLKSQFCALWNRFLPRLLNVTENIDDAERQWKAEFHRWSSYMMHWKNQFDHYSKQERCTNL
Chain of butyrylcholinesterase (BChE) (P81908 whole entry): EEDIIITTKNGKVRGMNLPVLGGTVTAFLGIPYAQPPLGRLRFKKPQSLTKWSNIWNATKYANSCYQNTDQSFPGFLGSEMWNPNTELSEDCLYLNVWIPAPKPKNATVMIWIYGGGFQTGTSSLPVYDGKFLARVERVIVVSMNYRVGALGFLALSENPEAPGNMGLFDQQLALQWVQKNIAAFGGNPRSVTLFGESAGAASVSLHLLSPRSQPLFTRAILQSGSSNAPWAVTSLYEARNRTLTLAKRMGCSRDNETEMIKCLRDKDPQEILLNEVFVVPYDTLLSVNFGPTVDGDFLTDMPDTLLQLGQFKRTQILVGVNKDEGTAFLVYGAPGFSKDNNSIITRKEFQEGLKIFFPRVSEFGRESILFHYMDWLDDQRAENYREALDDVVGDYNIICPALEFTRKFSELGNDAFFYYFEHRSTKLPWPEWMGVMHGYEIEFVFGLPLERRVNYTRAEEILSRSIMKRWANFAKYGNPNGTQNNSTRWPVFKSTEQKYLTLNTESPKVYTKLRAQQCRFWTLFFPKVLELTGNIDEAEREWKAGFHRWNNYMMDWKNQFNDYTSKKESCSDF

COc1ccc(O)c(C(C)(C)C)c1 [BHA, Butylated hydroxyanisole]
ABTS^•+ Scavenging IC50 [1]: 5.07 µg/mL
DPPH^• Scavenging IC50 [2]: 10.10 µg/mL
DMPD^•+ Scavenging IC50 [3]: 11.99 µg/mL

Cc1cc(C(C)(C)C)c(O)c(C(C)(C)C)c1 [BHT, butylated hydroxytoluene]
ABTS^•+ Scavenging IC50 [1]: 6.99 µg/mL
DPPH^• Scavenging IC50 [2]: 25.95 µg/mL
DMPD^•+ Scavenging IC50 [3]: 8.72 µg/mL

O=C(/C=C/c1ccc(O)c(O)c1)OCCc1ccccc1 [CAPE, caffeic acid phenethyl ester]
absorbance values for Fe^3+-reducing activity [4]: 2.509

O=c1oc2cc(O)ccc2c2oc3cc(O)ccc3c12 [Coumestrol, 3,9-dihydroxy-6-benzofuran [3,2-c] chromenone]
IC50 [5]: 44 nM
Ki [5]: 23.8 ± 2.17 nM
IC50 (α-glycosidase): 27.5 nM
IC50 [6]: 18.2 nM
Ki ([6]; Lineweaver–Burk): 21.7 ± 2.23 nM
IC50 [7]: 21.1 nM
ABTS^•+ Scavenging IC50 [1]: 12.24 µg/mL
DPPH^• Scavenging IC50 [2]: 25.95 µg/mL
DMPD^•+ Scavenging IC50 [3]: 12.81 µg/mL

Cc1c(C)c2c(c(C)c1O)CCC(C)(C(=O)O)O2 (stereo not drawn) [Trolox]
ABTS^•+ Scavenging IC50 [1]: 6.16 µg/mL
DPPH^• Scavenging IC50 [2]: 7.059 µg/mL
DMPD^•+ Scavenging IC50 [3]: 4.33 µg/mL

O=C(O)/C=C/c1ccc(O)c(O)c1 [caffeic acid]
absorbance values for Fe^3+-reducing activity [4]: 2.769

C=CCc1ccc(O)c(OC)c1 [eugenol]
absorbance values for Cu^2+-reducing activity [8]: 0.762

CCCCCc1cc(O)cc(O)c1 [olivetol]
Ki for AChE [9, 10]: 5.13 µg/mL
absorbance values for Cu^2+-reducing activity [8]: 1.314

O=C1c2c(O)cc(O)cc2OC(c2ccc(O)c(O)c2)C1O (stereo not drawn) [taxifolin]
Ki [9, 10]: 54900 nM
absorbance values for Cu^2+-reducing activity [8]: 0.750

O=c1[nH]c(=O)c2[nH]c(=O)[nH]c2[nH]1 [uric acid]
absorbance values for Fe^3+-reducing activity [4]: 0.432

CC(=O)c1c(O)c(C)c(O)c2c1OC1=CC(=O)C(C(C)=O)C(=O)C12C (stereo not drawn) [usnic acid]
Ki ([9]; ref 3 (usnic acid), 58 (CAPE)): 3.39 nM
absorbance values for Cu^2+-reducing activity [8]: 0.277
absorbance values for Fe^3+-reducing activity [4]: 0.278

Cc1c(C)c2c(c(C)c1O)CC[C@@](C)(CCC[C@H](C)CCC[C@H](C)CCCC(C)C)O2 [α-Tocopherol]
ABTS^•+ Scavenging IC50 [1]: 8.37 µg/mL
DPPH^• Scavenging IC50 [2]: 11.31 µg/mL
DMPD^•+ Scavenging IC50 [3]: 7.11 µg/mL

tannic acid
absorbance values for Fe^3+-reducing activity [4]: 2.428
